Series [1] deals with Mus musculus. Kind of series: Prodrug activation in mouse assessed as (S)-8-(2-amino-6-((R)-1-(3'-tert-butyl-5-chlorobiphenyl-2-yl)-2,2,2-trifluoroethoxy)pyrimidin-4-yl)-2,8-diazaspiro[4.5]decane-3-carboxylic acid formation at 10 to 50 mg/kg, po administered as single dose. Format: organism-based. As to conditions: in vivo.
In series [2] the test system is Mus musculus. Kind of series: In vivo inhibition of TPH1 in mouse assessed as reduction in 5-HT level in intestinal mucosa at 10 mg/kg, po administered daily as single dose relative to control. The class given is functional.
The subject of series [3] is Mus musculus. In words: In vivo inhibition of TPH1 in mouse assessed as reduction in 5-HT level in intestinal mucosa at 50 mg/kg, po administered daily as single dose relative to control. Format: functional.
The test system of series [4] is Mus musculus. In words: Drug level in mouse treated with (S)-ethyl 8-(2-amino-6-((R)-1-(5-chloro-3'-(methylsulfonyl)biphenyl-2-yl)-2,2,2-trifluoroethoxy)pyrimidin-4-yl)-2,8-diazaspiro[4.5]decane-3-carboxylate at 10 to 50 mg/kg, po administered as single dose. Format: ADME, organism-based. The following applies: in vivo.
Series [5] deals with T1, Tryptophan 5-hydroxylase 1 (Homo sapiens, UniProt P17752).
T1 sequence (P17752 whole entry): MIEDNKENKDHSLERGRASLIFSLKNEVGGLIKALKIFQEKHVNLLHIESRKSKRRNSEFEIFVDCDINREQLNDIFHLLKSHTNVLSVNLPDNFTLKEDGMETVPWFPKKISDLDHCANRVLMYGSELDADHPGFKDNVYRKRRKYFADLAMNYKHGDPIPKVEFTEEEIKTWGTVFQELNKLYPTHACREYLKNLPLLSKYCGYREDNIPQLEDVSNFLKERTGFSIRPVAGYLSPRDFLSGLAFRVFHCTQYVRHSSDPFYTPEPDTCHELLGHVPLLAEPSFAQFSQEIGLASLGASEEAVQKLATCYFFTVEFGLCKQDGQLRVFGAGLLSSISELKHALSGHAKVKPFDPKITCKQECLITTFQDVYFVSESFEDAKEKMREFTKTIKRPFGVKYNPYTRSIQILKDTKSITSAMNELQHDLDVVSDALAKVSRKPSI
Description: Inhibition of TPH1 (unknown origin)

In series [6] the test system is Mus musculus. Kind of series: Drug level in mouse treated with (S)-ethyl 8-(2-amino-6-((R)-1-(5-chloro-3'-sulfamoylbiphenyl-2-yl)-2,2,2-trifluoroethoxy)pyrimidin-4-yl)-2,8-diazaspiro[4.5]decane-3-carboxylate at 10 to 50 mg/kg, po administered as single dose. Format: ADME, organism-based. As to conditions: in vivo.
For series [7], the system named is Mus musculus. Kind of series: Prodrug activation in mouse assessed as (S)-8-(2-amino-6-((R)-1-(5-chloro-3'-fluorobiphenyl-2-yl)-2,2,2-trifluoroethoxy)pyrimidin-4-yl)-2,8-diazaspiro[4.5]decane-3-carboxylic acid formation at 10 to 50 mg/kg, po administered as single dose. Format: organism-based. As to conditions: in vivo.
Series [8] has as its system Mus musculus. Kind of series: Prodrug activation in mouse assessed as (S)-8-(2-amino-6-((R)-1-(5-chloro-3'-(trifluoromethyl)biphenyl-2-yl)-2,2,2-trifluoroethoxy)pyrimidin-4-yl)-2,8-diazaspiro[4.5]decane-3-carboxylic acid formation at 10 to 50 mg/kg, po administered as single dose. The following applies: in vivo. The class given is organism-based.
For series [9], the system named is Mus musculus. In words: Prodrug activation in mouse assessed as (S)-8-(2-amino-6-((R)-1-(5-chloro-3'-methoxybiphenyl-2-yl)-2,2,2-trifluoroethoxy)pyrimidin-4-yl)-2,8-diazaspiro[4.5]decane-3-carboxylic acid formation at 10 to 50 mg/kg, po administered as single dose. The class given is organism-based. The following applies: in vivo.
Series [10] concerns Mus musculus. Kind of series: Drug level in mouse treated with (S)-ethyl 8-(2-amino-6-((R)-1-(5-chloro-3',5'-difluorobiphenyl-2-yl)-2,2,2-trifluoroethoxy)pyrimidin-4-yl)-2,8-diazaspiro[4.5]decane-3-carboxylate at 10 to 50 mg/kg, po administered as single dose. The following applies: in vivo. The class given is ADME, organism-based.
In series [11] the test system is Mus musculus. In words: Prodrug activation in mouse assessed as (S)-8-(2-amino-6-((R)-1-(5-chloro-3'-methylbiphenyl-2-yl)-2,2,2-trifluoroethoxy)pyrimidin-4-yl)-2,8-diazaspiro[4.5]decane-3-carboxylic acid formation at 10 to 50 mg/kg, po administered as single dose. The class given is organism-based. The following applies: in vivo.
For series [12], the system named is Mus musculus. Kind of series: Prodrug activation in mouse assessed as (S)-8-(2-amino-6-((R)-1-(5-chloro-3'-sulfamoylbiphenyl-2-yl)-2,2,2-trifluoroethoxy)pyrimidin-4-yl)-2,8-diazaspiro[4.5]decane-3-carboxylic acid formation at 10 to 50 mg/kg, po administered as single dose. The following applies: in vivo. Format: organism-based.
Series [13] concerns Mus musculus. In words: Prodrug activation in mouse assessed as (S)-8-(2-amino-6-((R)-1-(5-chloro-3'-(methylsulfonyl)biphenyl-2-yl)-2,2,2-trifluoroethoxy)pyrimidin-4-yl)-2,8-diazaspiro[4.5]decane-3-carboxylic acid formation at 10 to 50 mg/kg, po administered as single dose. The following applies: in vivo. The class given is organism-based.
Series [14] concerns Mus musculus. In words: Drug level in mouse treated with (S)-ethyl 8-(2-amino-6-((R)-1-(5-chloro-3'-methoxybiphenyl-2-yl)-2,2,2-trifluoroethoxy)pyrimidin-4-yl)-2,8-diazaspiro[4.5]decane-3-carboxylate at 10 to 50 mg/kg, po administered as single dose. The class given is ADME, organism-based. As to conditions: in vivo.
In series [15] the test system is Mus musculus. Kind of series: Prodrug activation in mouse assessed as (S)-8-(2-amino-6-((R)-1-(5-chloro-3',5'-difluorobiphenyl-2-yl)-2,2,2-trifluoroethoxy)pyrimidin-4-yl)-2,8-diazaspiro[4.5]decane-3-carboxylic acid formation at 10 to 50 mg/kg, po administered as single dose. The class given is organism-based. As to conditions: in vivo.
In series [16] the test system is Mus musculus. Kind of series: Drug level in mouse treated with (S)-ethyl 8-(2-amino-6-((R)-1-(5-chloro-3'-(trifluoromethyl)biphenyl-2-yl)-2,2,2-trifluoroethoxy)pyrimidin-4-yl)-2,8-diazaspiro[4.5]decane-3-carboxylate at 10 to 50 mg/kg, po administered as single dose. The class given is ADME, organism-based. As to conditions: in vivo.

Molecules are shown by their SMILES.

What is called inhibition in vivo is the share of the control response that was lost under treatment. On to `CCOC(=O)[C@@H]1CC2(CCN(c3cc(O[C@H](c4ccc(Cl)cc4-c4cccc(C(C)(C)C)c4)C(F)(F)F)nc(N)n3)CC2)CN1`, for which, in [1], the Drug metabolism result is “Metabolite_Detected”. The inhibition in vivo at 10 mg/kg in series [2] stood at 33%. Further, the inhibition in vivo at 50 mg/kg in [3] stood at 59%.
One may read the IC50 as the concentration at which inhibition is half-maximal. Read a low IC50 as greater potency in that assay. For `CS(=O)(=O)c1cccc(-c2cc(Cl)ccc2[C@@H](Oc2cc(N3CCC4(CC3)CN[C@H](C(=O)O)C4)nc(N)n2)C(F)(F)F)c1`, the Drug metabolism result in [4] is reported as “Metabolite_Detected”. The compound also registered an IC50 in [5] of 14 nM.
In the case of `Nc1nc(O[C@H](c2ccc(Cl)cc2-c2cccc(S(N)(=O)=O)c2)C(F)(F)F)cc(N2CCC3(CC2)CN[C@H](C(=O)O)C3)n1`, the IC50 in series [5] turned out to be 11 nM. For the same compound, in series [6], the Drug metabolism result is listed as “Metabolite_Detected”.
`CCOC(=O)[C@@H]1CC2(CCN(c3cc(O[C@H](c4ccc(Cl)cc4-c4cccc(F)c4)C(F)(F)F)nc(N)n3)CC2)CN1`: in [2], the inhibition in vivo at 10 mg/kg is 38%. Further, the Drug metabolism result in [7] is given as “Metabolite_Detected”. Further, in series [3], the inhibition in vivo at 50 mg/kg is 61%.
On to `CCOC(=O)[C@@H]1CC2(CCN(c3cc(O[C@H](c4ccc(Cl)cc4-c4cccc(C(F)(F)F)c4)C(F)(F)F)nc(N)n3)CC2)CN1`, for which the inhibition in vivo at 10 mg/kg in series [2] turned out to be 31%. The inhibition in vivo at 50 mg/kg in series [3] worked out at 64%. Further, in series [8], the Drug metabolism result is “Metabolite_Detected”.
On to `CCOC(=O)[C@@H]1CC2(CCN(c3cc(O[C@H](c4ccc(Cl)cc4-c4cccc(OC)c4)C(F)(F)F)nc(N)n3)CC2)CN1`, for which the inhibition in vivo at 10 mg/kg in [2] worked out at 19%. Also, the inhibition in vivo at 50 mg/kg in series [3] was determined as 46%. Moreover, the Drug metabolism entry in [9] is “Metabolite_Detected”.
`Nc1nc(O[C@H](c2ccc(Cl)cc2-c2cc(F)cc(F)c2)C(F)(F)F)cc(N2CCC3(CC2)CN[C@H](C(=O)O)C3)n1` yielded a half-maximal inhibitory concentration (IC50) in series [5] of 22 nM. Besides, the Drug metabolism result in series [10] was “Metabolite_Detected”.
With `CCOC(=O)[C@@H]1CC2(CCN(c3cc(O[C@H](c4ccc(Cl)cc4-c4cccc(C)c4)C(F)(F)F)nc(N)n3)CC2)CN1`, the inhibition in vivo at 10 mg/kg in [2] was found to be 24%. For the same compound, the inhibition in vivo at 50 mg/kg in [3] turned out to be 54%. Further, the Drug metabolism result in series [11] is reported as “Metabolite_Detected”.
For the compound `CCOC(=O)[C@@H]1CC2(CCN(c3cc(O[C@H](c4ccc(Cl)cc4-c4cccc(S(N)(=O)=O)c4)C(F)(F)F)nc(N)n3)CC2)CN1`, the Drug metabolism entry in series [12] is “Metabolite_Detected”. Further, the inhibition in vivo at 10 mg/kg in series [2] was 15%. Moreover, in series [3], the inhibition in vivo at 50 mg/kg amounted to 42%.
On to `CCOC(=O)[C@@H]1CC2(CCN(c3cc(O[C@H](c4ccc(Cl)cc4-c4cccc(S(C)(=O)=O)c4)C(F)(F)F)nc(N)n3)CC2)CN1`, for which, in series [3], the inhibition in vivo at 50 mg/kg came to 38%. In addition, the Drug metabolism result in series [13] was “Metabolite_Detected”.
Compound `COc1cccc(-c2cc(Cl)ccc2[C@@H](Oc2cc(N3CCC4(CC3)CN[C@H](C(=O)O)C4)nc(N)n2)C(F)(F)F)c1` registered an IC50 in series [5] of 19 nM. The Drug metabolism entry in [14] was “Metabolite_Detected”.
Take `CCOC(=O)[C@@H]1CC2(CCN(c3cc(O[C@H](c4ccc(Cl)cc4-c4cc(F)cc(F)c4)C(F)(F)F)nc(N)n3)CC2)CN1`: in series [2], the inhibition in vivo at 10 mg/kg worked out at 30%. In addition, in series [15], the Drug metabolism result is recorded as “Metabolite_Detected”. The inhibition in vivo at 50 mg/kg in [3] worked out at 37%.
For the compound `Nc1nc(O[C@H](c2ccc(Cl)cc2-c2cccc(C(F)(F)F)c2)C(F)(F)F)cc(N2CCC3(CC2)CN[C@H](C(=O)O)C3)n1`, half-maximal inhibition in series [5] (IC50) was put at 21 nM. Moreover, in [16], the Drug metabolism result is recorded as “Metabolite_Detected”.

Values taken from ChEMBL document CHEMBL4000220, “Optimization of spirocyclic proline tryptophan hydroxylase-1 inhibitors” (Bioorg Med Chem Lett, 2017).
